Test results from US11685747B2, “Compounds that inhibit MCL-1 protein” (AMGEN INC., priority 2014, dated 2023).

Key:
recombinant human Mcl-1 = target: T1, recombinant human Mcl-1 (Homo sapiens, UniProt Q07820); test: Cell free Mcl-1:Bim affinity assay (Mcl-1 HTRF, TR-FRET); format: binding; details: inhibition of Mcl-1/Bim interaction
T1 construct: C-terminally 6×His tagged Mcl-1 containing residues 171-327; made in house

[1] = target: T2, Mcl-1/Bak protein-protein interactions (Homo sapiens, UniProt Q07820); test: Cell-based split luciferase complementation assay; details: HEK 293 M cells, serum-free, 4 h
T2 construct: expressed in transfected cells; host or cells: HEK 293 M cells, transient transfection

OPM-2 = test: Cell viability assay (OPM-2 10 FBS, CellTiter-Glo); format: cell-based, human; details: OPM-2 cells

T2 sequence (Q07820 whole entry): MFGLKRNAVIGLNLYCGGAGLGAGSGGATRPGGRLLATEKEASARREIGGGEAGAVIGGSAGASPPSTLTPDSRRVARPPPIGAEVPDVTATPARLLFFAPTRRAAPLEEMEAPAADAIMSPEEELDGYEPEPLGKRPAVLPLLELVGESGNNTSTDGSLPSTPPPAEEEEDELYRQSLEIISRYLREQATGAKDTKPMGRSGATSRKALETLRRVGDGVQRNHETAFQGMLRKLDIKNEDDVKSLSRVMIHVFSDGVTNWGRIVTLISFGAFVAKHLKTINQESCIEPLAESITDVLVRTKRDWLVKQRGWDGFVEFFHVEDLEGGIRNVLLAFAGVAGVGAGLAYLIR
T1 sequence (Q07820 171-327): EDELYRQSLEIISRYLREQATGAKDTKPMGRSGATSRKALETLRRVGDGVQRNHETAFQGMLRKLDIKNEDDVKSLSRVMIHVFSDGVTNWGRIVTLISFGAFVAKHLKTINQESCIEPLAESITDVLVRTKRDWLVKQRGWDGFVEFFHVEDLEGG

| SMILES | IC50 (recombinant human Mcl-1) | IC50 [1] | IC50 (OPM-2; Homo sapiens, OPM-2, 16 h) | IC50 (OPM-2; 16 h) |
| --- | --- | --- | --- | --- |
| CC1(C)C/C=C/[C@H](O)[C@@H]2CC[C@H]2CN2C[C@@]3(CCCc4cc(Cl)ccc43)COc3ccc(cc32)C(=O)NS(=O)(=O)C1 [Example 1, (1S,3′R,6′R,7′S,8′E)-6-Chloro-7′-Hydroxy-11′,11′-Dimethyl-3,4-Dihydro-2H,15′H-Spiro[Naphthalene-1,22′-[20]Oxa[13]Thia[1,14]Diazatetracyclo[14.7.2.0^3,6.0^19,24]Pentacos A[8,16,18,24]Tetraen]-15′-One 13′,13′-Dioxide] | 0.852 nM | 163 nM | 1880 nM |  |
| CC1(C)CC/C=C/[C@H](O)[C@@H]2CC[C@H]2CN2C[C@@]3(CCCc4cc(Cl)ccc43)COc3ccc(cc32)C(=O)NS1(=O)=O (single isomer, unassigned) [Example 40] | 7.68 nM | 297 nM | 7300 nM |  |
| CO[C@H]1/C=C/CC[C@@H](C)S(=O)(=O)NC(=O)c2ccc3c(c2)N(C[C@@H]2CC[C@H]21)C[C@@]1(CCCc2cc(Cl)ccc21)CO3 [Example 13, (1S,3′R,6′R,7′S,8′E,12′R)-6-Chloro-7′-Methoxy-12′-Methyl-3,4-Dihydro-2H,15′H-Spiro[Naphthalene-1,22′-[20]Oxa[13]Thia[1,14]Diazatetracyclo[14.7.2.0^3,6.0^19,24]Pentacos A[8,16,18,24]Tetraen]-15′-One 13′,13′-Dioxide] | 0.441 nM | 34.1 nM | 353 nM |  |
| CC[C@@H]1[C@@H](C)C/C=C/[C@H](O)[C@@H]2CC[C@H]2CN2C[C@@]3(CCCc4cc(Cl)ccc43)COc3ccc(cc32)C(=O)NS1(=O)=O (single isomer, unassigned) [Example 24] | 0.153 nM | 20.1 nM | 125 nM |  |
| C[C@@H]1C/C=C/[C@H](O)[C@@H]2CC[C@H]2CN2C[C@@]3(CCCc4cc(Cl)ccc43)COc3ccc(cc32)C(=O)NS(=O)(=O)[C@H]1CC1CCC1 (single isomer, unassigned) [Example 63] | 0.423 nM | 30.7 nM |  | 183 nM |
| CC(C)C[C@@H]1[C@@H](C)C/C=C/[C@H](O)[C@@H]2CC[C@H]2CN2C[C@@]3(CCCc4cc(Cl)ccc43)COc3ccc(cc32)C(=O)NS1(=O)=O (single isomer, unassigned) [Example 67] | 1.08 nM | 84.8 nM |  | 600 nM |
